Target: T1, E-selectin (Homo sapiens, UniProt P16581)
T1 sequence (P16581 whole entry): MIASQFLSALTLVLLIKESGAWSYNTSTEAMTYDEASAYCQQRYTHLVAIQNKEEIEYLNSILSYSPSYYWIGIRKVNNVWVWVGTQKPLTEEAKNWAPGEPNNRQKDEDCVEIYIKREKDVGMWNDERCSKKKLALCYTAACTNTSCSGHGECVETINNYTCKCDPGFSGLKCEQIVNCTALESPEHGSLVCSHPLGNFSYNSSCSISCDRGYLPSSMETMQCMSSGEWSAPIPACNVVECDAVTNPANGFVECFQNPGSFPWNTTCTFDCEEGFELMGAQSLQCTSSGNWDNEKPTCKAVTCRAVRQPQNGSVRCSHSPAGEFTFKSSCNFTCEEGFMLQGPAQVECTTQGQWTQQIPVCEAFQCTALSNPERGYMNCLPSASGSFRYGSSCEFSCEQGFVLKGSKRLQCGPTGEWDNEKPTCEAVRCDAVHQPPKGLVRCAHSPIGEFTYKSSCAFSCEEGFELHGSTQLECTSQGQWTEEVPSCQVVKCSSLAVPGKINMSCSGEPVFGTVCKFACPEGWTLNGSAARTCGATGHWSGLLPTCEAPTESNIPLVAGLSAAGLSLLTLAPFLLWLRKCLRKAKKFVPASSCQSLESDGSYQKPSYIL
Assay: Compound was evaluated for the Selectin E binding activity.

IC50: > 10 µM
SMILES: CC(=O)N[C@H]1[C@H]([C@H](O)[C@H](O)CO)O[C@@](O[C@H]2[C@@H](O)[C@@H](CO)O[C@@H](O[C@@H]([C@H](O[C@@H]3O[C@@H](C)[C@@H](O)[C@@H](O)[C@@H]3O)[C@H](C=O)NC(C)=O)[C@H](O)CO)[C@@H]2O)(C(=O)O)C[C@@H]1O [SIALYL LEWIS X]

Source: ChEMBL document CHEMBL1130612, “Exploration of beta-turn scaffolding motifs as components of sialyl Le(X) mimetics and their relevance to P-selectin” (Bioorg Med Chem Lett, 1998)
